The values below come from ChEMBL document CHEMBL3399999, “Anti-trypanosomal cadinanes synthesized by transannular cyclization of the natural sesquiterpene lactone nobilin” (Bioorg Med Chem, 2015).

Data set [1] can be described thus: Selectivity index, ratio of IC50 for rat L6 cells to IC50 for bloodstream forms of Trypanosoma brucei rhodesiense STIB 900. Type of data set: toxicity, cell-based. The note with it: read-out: Ratio IC50.
The test system of the next data set is L6. Description: Cytotoxicity against rat L6 cells. Format: cell-based.
The subject of data set [2] is Trypanosoma brucei rhodesiense. Description: Antiprotozoal activity against bloodstream forms of Trypanosoma brucei rhodesiense STIB 900 after 70 hrs by Alamar blue assay. Format: functional, organism-based. The note with it: STIB 900, 70 h.

Broadly, the IC50 is the concentration that gives 50% inhibition. A high value points to weaker potency. `Nc1nc(N)nc(Nc2ccc([As]3SCC(CO)S3)cc2)n1` (stereo unspecified) [MELARSOPROL]: in data set [1], the selectivity ratio is > 5000. The compound further returned an IC50 with L6 of 29.1 µM.
Turning to `C=C(C(=O)O)[C@H]1[C@@H]2C=C(C)C(=O)C[C@@H]2[C@@H](C)C[C@@H]1OC(=O)/C(C)=C\C`, the selectivity ratio in data set [1] was determined as 1.6. Also, the figures for the concentration for half-maximal inhibition (IC50) (in data set [2]; in the data set on L6) were 31.1 µM and 49.1 µM, respectively.
On the same counts, the results for `C=C1C(=O)OC2/C=C(/C)[C@@H](O)C/C=C(\C)C[C@H](OC(=O)/C(C)=C/C)[C@@H]12` (single isomer, unassigned) are 2.9, 3.48 µM and 10.2 µM.
On the same counts, the results for `C=C(C(=O)O)[C@H]1[C@@H]2C=C(C)[C@@H](O)C[C@@H]2[C@](C)(O)C[C@@H]1OC(=O)/C(C)=C\C` are 3.3, 14.8 µM and 49 µM.
Regarding `C=C1C(=O)O[C@@H]2/C=C(/C)[C@@H](O)C/C=C(\C)C[C@H](OC(=O)/C(C)=C\C)[C@@H]12` [NOBILIN], the selectivity ratio in data set [1] was determined as 2.1. In addition, the IC50 was 3.19 µM in data set [2] and 6.64 µM in the data set on L6.
On the same counts, the results for `C=C(C(=O)O)[C@H]1[C@@H]2C=C(C)[C@@H](O)C[C@H]2[C@](C)(O)C[C@@H]1OC(=O)/C(C)=C\C` are > 2, 50.5 µM and > 100 µM.
On the same counts, the results for `C=C1C(=O)O[C@@]23C=C(C)[C@@H](O)C[C@@H]2[C@@H](C)C[C@H](OC(=O)/C(C)=C\C)[C@@H]13` are 2.4, 0.46 µM and 1.11 µM.
Regarding `C=C(C)C(=O)O[C@H]1C/C(C)=C/C[C@H](O)/C(C)=C\C2OC(=O)C(=C)[C@@H]21` (single isomer, unassigned), the selectivity ratio in data set [1] was found to be 6.1. The IC50 amounted to 1.54 µM in data set [2] and 9.38 µM with L6.
`C=C1C(=O)O[C@]23C=C(C)[C@@H](O)C[C@@H]2[C@H](C)C[C@H](OC(=O)/C(C)=C\C)[C@@H]13`: the selectivity ratio in data set [1] amounted to 1.5. Besides, the IC50 amounted to 1.44 µM in data set [2] and 2.12 µM with L6.
